Results: patent US6355799B1, “Substituted benzene compounds, process for their preparation, and herbicidal and defoliant compositions containing them” (ISK Americas Incorporated, priority 1997, dated 2002)

Experiments:
Assay type in all cases: in vivo
[1] = system: redroot pigweed (Amaranthus retroflexus, AMARE); experiment: Pre-emerge test, greenhouse herbicide activity screening; conditions: rated 14 days after application, 0 = no damage, 100 = complete death
Outline: (§1)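 Rating: 0–100 visual injury, 14 DAA. Application: acetone, 187 l/ha, 15–1000 g ai/ha, flat-fan track sprayer with nozzle 40–45 cm above soil or canopy. Post-emerge runs used 0.25% v/v surfactant on 2–3 leaf plants.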

[2] = system: barnyardgrass (Echinochloa crus-galli, ECHCG); experiment: as above; conditions: rated 14 days after application, 0 = no damage, 100 = complete death
Outline: as §1

[3] = system: common ragweed (Ambrosia artemisizfolia L., AMBEL); experiment: as above; conditions: rated 14 days after application, 0 = no damage, 100 = complete death
Outline: as §1

[4] = system: green foxtail (Setaria viridis, SETVI); experiment: as above; conditions: rated 14 days after application, 0 = no damage, 100 = complete death
Outline: as §1

[5] = system: ivyleaf morningglory (Ipomoea hederacea, IPOHE); experiment: as above; conditions: rated 14 days after application, 0 = no damage, 100 = complete death
Outline: as §1

[6] = system: johnsongrass (Sorghum halepense, SORHA); experiment: as above; conditions: rated 14 days after application, 0 = no damage, 100 = complete death
Outline: as §1

[7] = system: lambsquarters (Chenopodium album, CHEAL); experiment: as above; conditions: rated 14 days after application, 0 = no damage, 100 = complete death
Outline: as §1

[8] = system: large crabgrass (Digitaria sanguinalis, DIGSA); experiment: as above; conditions: rated 14 days after application, 0 = no damage, 100 = complete death
Outline: as §1

[9] = system: sicklepod (Cassia obtusifolia, CASOB); experiment: as above; conditions: rated 14 days after application, 0 = no damage, 100 = complete death
Outline: as §1

[10] = system: velvetleaf (Abutilon theophrasti, ABUTH); experiment: as above; conditions: rated 14 days after application, 0 = no damage, 100 = complete death
Outline: as §1

[11] = system: field corn (Zea mays L., var. Dekalb 535, CORN); experiment: Pre-emerge test, crop safety; conditions: rated 14 days after application, 0 = no damage, 100 = complete death
Outline: (§2)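 Applied at 15–1000 g ai/ha from acetone in 187 l/ha spray volume. Post-emergence applications included 0.25% v/v non-ionic surfactant and reached plants sown 8–21 days before. Pre-emergence applications were incorporated by surface watering. Efficacy or crop damage was rated on a 0–100 scale after 14 days.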

[12] = system: upland rice (Oryza sp., var. Tebonnet, RICE); experiment: Pre-emerge test, crop safety; conditions: rated 14 days after application, 0 = no damage, 100 = complete death
Outline: as §2

[13] = system: barnyardgrass (Echinochloa crus-galli, ECHCG); experiment: Post-emerge test, greenhouse herbicide activity screening; conditions: post-emerge, 14 days after application, rating scale 0-100
Outline: (§3)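 Visual ratings on a 0-100 scale (0 no damage, 100 all plants dead) were taken at 14 days after treatment. Rates of 15-1000 g ai/ha in acetone, 187 l/ha, were sprayed onto soil one day after planting (pre-emerge) or onto 2-3 leaf plants with 0.25% v/v surfactant (post-emerge).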

[14] = system: common ragweed (Ambrosia artemisizfolia L., AMBEL); experiment: as above; conditions: post-emerge, 14 days after application, rating scale 0-100
Outline: as §3

[15] = system: ivyleaf morningglory (Ipomoea hederacea, IPOHE); experiment: as above; conditions: post-emerge, 14 days after application, rating scale 0-100
Outline: as §3

[16] = system: johnsongrass (Sorghum halepense, SORHA); experiment: as above; conditions: post-emerge, 14 days after application, rating scale 0-100
Outline: as §3

[17] = system: lambsquarters (Chenopodium album, CHEAL); experiment: as above; conditions: post-emerge, 14 days after application, rating scale 0-100
Outline: as §3

[18] = system: large crabgrass (Digitaria sanguinalis, DIGSA); experiment: as above; conditions: post-emerge, 14 days after application, rating scale 0-100
Outline: as §3

[19] = system: redroot pigweed (Amaranthus retroflexus, AMARE); experiment: as above; conditions: post-emerge, 14 days after application, rating scale 0-100
Outline: as §3

[20] = system: sicklepod (Cassia obtusifolia, CASOB); experiment: as above; conditions: post-emerge, 14 days after application, rating scale 0-100
Outline: as §3

[21] = system: velvetleaf (Abutilon theophrasti, ABUTH); experiment: as above; conditions: post-emerge, 14 days after application, rating scale 0-100
Outline: as §3

[22] = system: field corn (Zea mays L., var. Dekalb 535, CORN); experiment: Post-emerge test, crop safety; conditions: post-emerge, 14 days after application, rating scale 0-100
Outline: (§4)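 Plants grown in 10 cm pots of sandy loam mix received acetone-dissolved compounds through a moving flat-fan nozzle. Doses ranged from 15 to 1000 g ai/ha. Pre-emerge pots were seeded one day earlier, post-emerge pots 8–21 days earlier. Fourteen days on, each pot was graded 0–100 for damage.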

[23] = system: upland rice (Oryza sp., var. Tebonnet, RICE); experiment: Post-emerge test, crop safety; conditions: post-emerge, 14 days after application, rating scale 0-100
Outline: as §4

COc1c(Cl)cc(F)c(-n2c(=O)cc(C(F)(F)F)n(C)c2=O)c1NC(=O)c1ccc(-c2ccccc2)cc1 [2-37]
Pre-emerge Herbicidal Activity, phytotoxicity rating (0-100), AMARE ([1]; 63 g ai/ha): 0 | Pre-emerge Herbicidal Activity, phytotoxicity rating (0-100), AMARE ([1]; 250 g ai/ha): 30 | Pre-emerge Herbicidal Activity, phytotoxicity rating (0-100), ECHCG ([2]; 63 g ai/ha): 0 | Pre-emerge Herbicidal Activity, phytotoxicity rating (0-100), ECHCG ([2]; 250 g ai/ha): 0 | Pre-emerge Herbicidal Activity, phytotoxicity rating (0-100), AMBEL ([3]; 63 g ai/ha): 0 | Pre-emerge Herbicidal Activity, phytotoxicity rating (0-100), AMBEL ([3]; 250 g ai/ha): 0 | Pre-emerge Herbicidal Activity, phytotoxicity rating (0-100), SETVI ([4]; 63 g ai/ha): 0 | Pre-emerge Herbicidal Activity, phytotoxicity rating (0-100), SETVI ([4]; 250 g ai/ha): 0 | Pre-emerge Herbicidal Activity, phytotoxicity rating (0-100), IPOHE ([5]; 63 g ai/ha): 0 | Pre-emerge Herbicidal Activity, phytotoxicity rating (0-100), IPOHE ([5]; 250 g ai/ha): 0 | Pre-emerge Herbicidal Activity, phytotoxicity rating (0-100), SORHA ([6]; 63 g ai/ha): 0 | Pre-emerge Herbicidal Activity, phytotoxicity rating (0-100), SORHA ([6]; 250 g ai/ha): 0 | Pre-emerge Herbicidal Activity, phytotoxicity rating (0-100), CHEAL ([7]; 63 g ai/ha): 0 | Pre-emerge Herbicidal Activity, phytotoxicity rating (0-100), CHEAL ([7]; 250 g ai/ha): 50 | Pre-emerge Herbicidal Activity, phytotoxicity rating (0-100), DIGSA ([8]; 63 g ai/ha): 0 | Pre-emerge Herbicidal Activity, phytotoxicity rating (0-100), DIGSA ([8]; 250 g ai/ha): 0 | Pre-emerge Herbicidal Activity, phytotoxicity rating (0-100), CASOB ([9]; 63 g ai/ha): 0 | Pre-emerge Herbicidal Activity, phytotoxicity rating (0-100), CASOB ([9]; 250 g ai/ha): 0 | Pre-emerge Herbicidal Activity, phytotoxicity rating (0-100), ABUTH ([10]; 63 g ai/ha): 0 | Pre-emerge Herbicidal Activity, phytotoxicity rating (0-100), ABUTH ([10]; 250 g ai/ha): 30 | Pre-emerge phytotoxicity rating (0-100), crop damage, CORN ([11]; 63 g ai/ha): 0 | Pre-emerge phytotoxicity rating (0-100), crop damage, CORN ([11]; 250 g ai/ha): 0 | Pre-emerge phytotoxicity rating (0-100), crop damage, RICE ([12]; 63 g ai/ha): 0 | Pre-emerge phytotoxicity rating (0-100), crop damage, RICE ([12]; 250 g ai/ha): 0 | phytotoxicity rating ECHCG ([13]; 63 g ai/ha): 0 | phytotoxicity rating ECHCG ([13]; 250 g ai/ha): 0 | phytotoxicity rating AMBEL ([14]; 63 g ai/ha): 0 | phytotoxicity rating AMBEL ([14]; 250 g ai/ha): 0 | phytotoxicity rating IPOHE ([15]; 63 g ai/ha): 0 | phytotoxicity rating IPOHE ([15]; 250 g ai/ha): 0 | phytotoxicity rating SORHA ([16]; 63 g ai/ha): 0 | phytotoxicity rating SORHA ([16]; 250 g ai/ha): 0 | phytotoxicity rating CHEAL ([17]; 63 g ai/ha): 0 | phytotoxicity rating CHEAL ([17]; 250 g ai/ha): 20 | phytotoxicity rating DIGSA ([18]; 63 g ai/ha): 0 | phytotoxicity rating DIGSA ([18]; 250 g ai/ha): 0 | phytotoxicity rating AMARE ([19]; 63 g ai/ha): 0 | phytotoxicity rating AMARE ([19]; 250 g ai/ha): 10 | phytotoxicity rating CASOB ([20]; 63 g ai/ha): 0 | phytotoxicity rating CASOB ([20]; 250 g ai/ha): 0 | phytotoxicity rating ABUTH ([21]; 63 g ai/ha): 0 | phytotoxicity rating ABUTH ([21]; 250 g ai/ha): 30 | phytotoxicity rating CORN ([22]; 63 g ai/ha): 0 | phytotoxicity rating CORN ([22]; 250 g ai/ha): 0 | phytotoxicity rating RICE ([23]; 63 g ai/ha): 0 | phytotoxicity rating RICE ([23]; 250 g ai/ha): 0
